# Experimental data taken from publication PMC9737137, “The Mitochondrial Protein MitoNEET as a Probe for the Allostery of Glutamate Dehydrogenase” (Molecules, 2022).
# Key:
# [1] = biological target: T1, glutamate dehydrogenase (GDH) (Bos taurus, UniProt P00366); assay: GDH kinetics, NAD(P)H formation at […] nm; percent activation with NADP; type: biochemical
# T1 construct: gene GLUD1
# [2] = biological target: T1, glutamate dehydrogenase (GDH); assay: GDH kinetics, NAD(P)H formation at […] nm; fraction of activity with NAD added first; type: biochemical
# [3] = biological target: T1, glutamate dehydrogenase (GDH); assay: GDH kinetics, NAD(P)H formation at […] nm; fraction of activity (Figure 1C); type: biochemical
# [4] = biological target: T1, glutamate dehydrogenase (GDH); assay: GDH kinetics, NAD(P)H formation at […] nm; percent activation (Figure 4B); type: biochemical
# mitoNEET = biological target: T2, mitoNEET (Homo sapiens, UniProt Q9NZ45); assay: radioligand competition assay (SPA nickel beads); type: binding
# T2 construct: gene CISD1
# T2 sequence (Q9NZ45 2-108): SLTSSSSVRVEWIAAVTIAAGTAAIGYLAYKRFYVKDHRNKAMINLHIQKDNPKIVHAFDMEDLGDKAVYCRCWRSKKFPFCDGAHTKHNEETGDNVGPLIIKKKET
# [5] = biological target: T1, glutamate dehydrogenase (GDH); assay: GDH kinetics, NAD(P)H formation at […] nm; fraction of activity; type: biochemical
# T1 sequence (P00366 58-558, one chain of several): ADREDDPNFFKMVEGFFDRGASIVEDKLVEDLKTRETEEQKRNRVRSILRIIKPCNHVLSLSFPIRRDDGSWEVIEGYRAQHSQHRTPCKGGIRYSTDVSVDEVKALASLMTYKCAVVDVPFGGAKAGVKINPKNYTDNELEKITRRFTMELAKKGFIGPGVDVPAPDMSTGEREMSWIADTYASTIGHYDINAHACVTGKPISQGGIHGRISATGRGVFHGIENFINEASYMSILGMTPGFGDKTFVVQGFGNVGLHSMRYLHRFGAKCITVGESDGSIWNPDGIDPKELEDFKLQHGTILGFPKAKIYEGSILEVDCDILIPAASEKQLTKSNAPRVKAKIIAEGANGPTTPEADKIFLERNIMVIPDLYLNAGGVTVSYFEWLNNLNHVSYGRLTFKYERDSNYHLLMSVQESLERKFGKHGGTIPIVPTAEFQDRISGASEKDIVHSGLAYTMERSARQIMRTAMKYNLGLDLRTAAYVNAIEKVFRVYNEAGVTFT
smiles,measurement,setting,value
Nc1ncnc2c1ncn2[C@@H]1O[C@H](COP(=O)(O)OP(=O)(O)O)[C@@H](O)[C@H]1O [ADP],% activation,[1],67 % activation
O=C(O[C@@H]1Cc2c(O)cc(O)cc2O[C@@H]1c1cc(O)c(O)c(O)c1)c1cc(O)c(O)c(O)c1 [EGCG],"GDH kinetics, NAD(P)H formation at 340 nm; fraction of activity with NAD added f",[2],0.35 ± 0.02 fraction of activity
Nc1nc2c(ncn2[C@@H]2O[C@H](COP(=O)(O)OP(=O)(O)OP(=O)(O)O)[C@@H](O)[C@H]2O)c(=O)[nH]1 [GTP],"GDH kinetics, NAD(P)H formation at 340 nm; fraction of activity (Figure 1C)",[3],under only one assay condition the rescue of GDH activity from GTP inhibition by mitoNEET could be observed
CC(C)C[C@H](N)C(=O)O [leucine],"GDH kinetics, NAD(P)H formation at 340 nm; percent activation (Figure 4B)",[4],addition of mitoNEET after the addition of leucine gave no impact in percent activation over the addition of leucine alone
CCCCCCCCCCCCCCCC(=O)SCCNC(=O)CCNC(=O)[C@H](O)C(C)(C)COP(=O)(O)OP(=O)(O)OC[C@H]1O[C@@H](n2cnc3c(N)ncnc32)[C@H](O)[C@@H]1OP(=O)(O)O [palmitoyl-CoA],IC50,mitoNEET,0.304 µM
same,"GDH kinetics, NAD(P)H formation at 340 nm; fraction of activity",[5],0.44 ± 0.04 fraction of activity
